From paper PMC6478823, “A suite of phenotypic assays to ensure pipeline diversity when prioritizing drug-like Cryptosporidium growth inhibitors” (Nature Communications, 2019)
Values joined by “and” are separate entries in the source; they are usually repeats but may differ in a detail not shown here. Equal entries are not always repeated. Where two headings read alike, the source gives them in different places.

Legend:
C. parvum [1] = experiment: 48 h Cryptosporidium growth inhibition assay; assay type: cell-based, Cryptosporidium parvum; settings: for EC90: compound added 3 h post-infection, read at 48 h; for 0 - 48 h V. villosa lectin (asexual): Mean % Inhibition (parasites): replicates 1-3 in separate columns
From the text: As a first step in developing specific Cryptosporidium mode of action assays, we conducted a series of light microscopy time-lapse and transmission electron microscopy (TEM) time course experiments in order to precisely define C. parvum development within the HCT-8 cell culture system. […] This synchronicity was exploited by modifying a previously developed high-content microscopy assay. These assay modifications enabled the evaluation of several key events within the life cycle: host cell invasion, intracellular replication, host cell egress and establishment of new parasitophorous vacuoles, and sexual differentiation. […] Since the methods all used automated liquid handling, imaging, and image analysis, the assay methods all incorporated nuclear staining to monitor host cell numbers and enable recognition of HCT-8 cell monolayer damage, for example as an artifact from a malfunctioning plate washer or from unanticipated cytotoxicity of the compounds.
Human ileocecal adenocarcinoma (HCT-8) cells were purchased from ATCC (catalog# CCL-244) and cultured in ATCC modified RPMI-1640 medium (Gibco, catalog# A10491–01), supplemented with 10% heat-inactivated fetal bovine serum (Sigma-Aldrich, catalog# 12306C) and 120 U/mL penicillin and 120 μg/mL streptomycin (Gibco, catalog# 15140-122) (culture media). […] For all experiments, HCT-8 cells between passages 9 and 39 were used. C. parvum (Iowa isolate) oocysts were purchased from Bunchgrass Farm (Deary, ID), stored at 4 °C and used within 5 months of collection from an infected calf. To induce excystation, oocysts were first treated with 10 mM hydrochloric acid for 10 min at 37 °C, spun at 14,000×g for 4.5 min at room temperature, treated with 2 mM sodium taurocholate for 10 min at 16 °C, spun as before, and resuspended in culture media for infection.
A modification of a previously reported immunofluorescence assay was used to determine the EC50 and EC90 of compounds[13]. HCT-8 cells were grown to ≥ 90% confluence in 384-well plates (Corning, catalog# 353962) and infected with 5500 oocysts per well after they were induced for excystation as described above. Different concentrations of compounds were added 3 h post-infection and plates were incubated for another 45 h in a 5% CO2 incubator at 37 °C. Wells were then washed 3 times with PBS containing 111 mM D-galactose (PBS-D-gal), fixed with 4% paraformaldehyde (PFA) in PBS for 15 min at room temperature, permeabilized with 0.25% Triton X-100 for 10 min at 37 °C, washed 3 times with PBS with 0.1% Tween 20, and blocked with 4% bovine serum albumin (BSA) in PBS for 2 h at 37 °C or 4 °C overnight. Parasitophorous vacuoles were stained with 1.33 µg/mL of fluorescein-labeled Vicia villosa lectin (Vector Laboratories, catalog# FL-1231) diluted in 1% BSA in PBS with 0.1% Tween 20 for 1 h at 37 °C, followed by addition of Hoechst 33258 (AnaSpec, catalog# AS-83219) at 0.09 mM diluted in water for another 15 min at 37 °C. Wells were then washed 5 times with PBS containing 0.1% Tween 20. A Nikon Eclipse Ti2000 epifluorescence microscope with an automated stage was programmed using NIS-Elements Advanced Research software (Nikon, USA) to focus on the center of each well and take a 3 × 3 or 6 × 6 composite image using an EXi blue fluorescence microscopy camera (QImaging, Canada) with a 20 × objective (NA = 0.45). Nuclei and parasite images were separately exported as.tif files and analyzed using macros developed on the ImageJ platform (National Institutes of Health)[13].

C. parvum [2] = experiment: Egress, motility, reinvasion assay (PV ratio); settings: compound at EC90; for Egress and Reinvasion Assay: Mean PV ratios (19.5h:6h), Average: average of replicates; for Egress and Reinvasion Assay: Mean PV ratios (19.5h:6h), Replicate 1a: single replicate 1; for Egress and Reinvasion Assay: Mean PV ratios (19.5h:6h), Replicate 2a: single replicate 2; for Egress and Reinvasion Assay: Mean PV ratios (19.5h:6h), Replicate 3a: single replicate 3; for Egress and Reinvasion Assay: Mean PV ratios (19.5h:6h), Replicate 4a: single replicate 4
Protocol: (§1) For quantification of parasitophorous vacuoles over time, HCT-8 cells were grown to greater than 90% confluence in 384-well plates and infected with 11,000 oocysts after triggering excystation.

C. parvum [3] = experiment: Time-lapse microscopy of live C. parvum egress; settings: 2 × EC90 (1.3 µM total)
Protocol: Cells were then imaged live with 5 min intervals using Nomarski optics and a ×60 oil objective (1.4 NA). […] After 3 h, cells were gently washed with warm complete media to remove oocyst shells before adding either compound or DMSO. Tiled 2 × 2 images were taken live at 20 min intervals using a ×40 dry objective (0.7 NA).

C. parvum [4] = experiment: Time course infection experiment (PV numbers versus time)
Protocol: as §1

C. parvum [5] = settings: cited from earlier work
Cryptosporidium = settings: cited from earlier work
cryptosporidiosis = test system: cryptosporidiosis; set-up: method as in PMID 17253532; settings: cited from earlier work
[6] = read-out: Regular 3 to 48 h assay in vitro EC90, C. parvum in HCT-8 cells
[7] = Cryptosporidium parvum, HCT-8, read-out: Regular 3 to 48 h assay in vitro EC90, C. parvum in HCT-8 cells
[8] = ref Love, et al. 2017. PLoS NTD.

Cc1cccc(-n2ncc3c(O)nc(-n4nc(C)cc4NC(=O)c4cc5ccccc5o4)nc32)c1 [C-1]
EC90 (C. parvum [1]; [6]): 0.65 µM | Egress and Reinvasion Assay: Mean PV ratios (19.5h:6h), Average (C. parvum [2]): 0.80 | Egress and Reinvasion Assay: Mean PV ratios (19.5h:6h), Replicate 1a (C. parvum [2]): 0.80 | Egress and Reinvasion Assay: Mean PV ratios (19.5h:6h), Replicate 2a (C. parvum [2]): 1.08 | Egress and Reinvasion Assay: Mean PV ratios (19.5h:6h), Replicate 3a (C. parvum [2]): 0.56 | Egress and Reinvasion Assay: Mean PV ratios (19.5h:6h), Replicate 4a (C. parvum [2]): 0.76 | parasite egress during live microscopy (C. parvum [3]): inhibited parasite egress | Parasites Detected, Average (C. parvum [4]; C1 at 2*EC90, 6 h post-infection): 1992 | Parasites Detected, Average (C. parvum [4]; C1 at 2*EC90, 9.5 h post-infection): 2503 | Parasites Detected, Average (C. parvum [4]; C1 at 2*EC90, 12 h post-infection): 1773 | Parasites Detected, Average (C. parvum [4]; C1 at 2*EC90, 13.5 h post-infection): 1847 | Parasites Detected, Average (C. parvum [4]; C1 at 2*EC90, 15 h post-infection): 879 | Parasites Detected, Average (C. parvum [4]; C1 at 2*EC90, 18 h post-infection): 1045 | Parasites Detected, Average (C. parvum [4]; C1 at 2*EC90, 19.5 h post-infection): 1400 | Parasites Detected, Average (C. parvum [4]; C1 at 2*EC90, 22.5 h post-infection): 945 | Parasites Detected, Average (C. parvum [4]; C1 at EC90, 6 h post-infection): 2336 | Parasites Detected, Average (C. parvum [4]; C1 at EC90, 9.5 h post-infection): 2363 | Parasites Detected, Average (C. parvum [4]; C1 at EC90, 12 h post-infection): 2052 | Parasites Detected, Average (C. parvum [4]; C1 at EC90, 13.5 h post-infection): 2149 | Parasites Detected, Average (C. parvum [4]; C1 at EC90, 15 h post-infection): 1056 | Parasites Detected, Average (C. parvum [4]; C1 at EC90, 18 h post-infection): 1258 | Parasites Detected, Average (C. parvum [4]; C1 at EC90, 19.5 h post-infection): 2054 | Parasites Detected, Average (C. parvum [4]; C1 at EC90, 22.5 h post-infection): 2003

O=C(Nc1ccc(Cl)cc1)N1CCN(c2ccc3nncn3n2)CC1 [D-1]
0 - 48 h V. villosa lectin (asexual): Mean % Inhibition (parasites) (C. parvum [1]; D-1 at log conc (µM) 0.00): -13.99% and -26.93% and 12.39% | 0 - 48 h V. villosa lectin (asexual): Mean % Inhibition (parasites) (C. parvum [1]; D-1 at log conc (µM) 0.30): 44.90% and 34.43% and 28.35% | 0 - 48 h V. villosa lectin (asexual): Mean % Inhibition (parasites) (C. parvum [1]; D-1 at log conc (µM) 0.48): 62.14% and 71.97% and 62.62% | 0 - 48 h V. villosa lectin (asexual): Mean % Inhibition (parasites) (C. parvum [1]; D-1 at log conc (µM) 0.60): 81.17% and 79.33% and 75.56% | 0 - 48 h V. villosa lectin (asexual): Mean % Inhibition (parasites) (C. parvum [1]; D-1 at log conc (µM) 0.85): 91.46% and 90.48% and 90.58% | 0 - 48 h V. villosa lectin (asexual): Mean % Inhibition (parasites) (C. parvum [1]; D-1 at log conc (µM) 1.08): 93.34% and 92.97% and 93.35% | 0 - 48 h V. villosa lectin (asexual): Mean % Inhibition (parasites) (C. parvum [1]; D-1 at log conc (µM) 1.40): 93.98% and 94.31% and 94.76% | 0 - 48 h V. villosa lectin (asexual): Mean % Inhibition (parasites) (C. parvum [1]; D-1 at log conc (µM) -0.70): -20.95% and -21.90% and -17.53% | 0 - 48 h V. villosa lectin (asexual): Mean % Inhibition (parasites) (C. parvum [1]; D-1 at log conc (µM) -1.40): -23.49% and -23.30% and -25.37% | EC50 (C. parvum [1]; read-out: 0 − 48 h V. villosa lectin (asexual): EC50, asexual growth assay, first 48 h, range in brackets): 2100 nM | EC90 (C. parvum [1]; [6]): 5.1 µM | efficacy in chronic NSG mouse model (C. parvum [5]): efficacious | activity in NSG mouse model (C. parvum [5]; ref Jumani, et al. 2018. AAC.): Active | efficacy in acute IFN-γ KO mouse model (Cryptosporidium): efficacious | Egress and Reinvasion Assay: Mean PV ratios (19.5h:6h), Average (C. parvum [2]): 1.86 | Egress and Reinvasion Assay: Mean PV ratios (19.5h:6h), Replicate 1a (C. parvum [2]): 1.12 | Egress and Reinvasion Assay: Mean PV ratios (19.5h:6h), Replicate 2a (C. parvum [2]): 1.70 | Egress and Reinvasion Assay: Mean PV ratios (19.5h:6h), Replicate 3a (C. parvum [2]): 3.12 | Egress and Reinvasion Assay: Mean PV ratios (19.5h:6h), Replicate 4a (C. parvum [2]): 1.50

CC(C)/N=c1\cc2n(-c3ccc(Cl)cc3)c3ccccc3nc-2cc1Nc1ccc(Cl)cc1 [Clofazimine]
EC90 (C. parvum [1]; [7]): 19.6 µM | efficacy in chronic NOD SCID gamma (NSG) mouse model (C. parvum [5]): not efficacious | activity in NOD SCID γ mouse model (C. parvum [5]; [8]): inactive | efficacy in acute, self-resolving IFN-γ KO mouse model (Cryptosporidium): efficacious | activity in IFN-γ knockout mouse model (Cryptosporidium; [8]): active | Egress and Reinvasion Assay: Mean PV ratios (19.5h:6h), Average (C. parvum [2]): 0.77 | Egress and Reinvasion Assay: Mean PV ratios (19.5h:6h), Replicate 1a (C. parvum [2]): 1.03 | Egress and Reinvasion Assay: Mean PV ratios (19.5h:6h), Replicate 2a (C. parvum [2]): 1.03 | Egress and Reinvasion Assay: Mean PV ratios (19.5h:6h), Replicate 3a (C. parvum [2]): 0.51 | Egress and Reinvasion Assay: Mean PV ratios (19.5h:6h), Replicate 4a (C. parvum [2]): 0.49

CC(=O)Oc1ccccc1C(=O)Nc1ncc([N+](=O)[O-])s1 [Nitazoxanide]
EC90 (C. parvum [1]; [7]): 3.52 µM | efficacy in AIDS patients (cryptosporidiosis): equivalent to a placebo | Egress and Reinvasion Assay: Mean PV ratios (19.5h:6h), Average (C. parvum [2]): 1.40 | Egress and Reinvasion Assay: Mean PV ratios (19.5h:6h), Replicate 1a (C. parvum [2]): 1.33 | Egress and Reinvasion Assay: Mean PV ratios (19.5h:6h), Replicate 2a (C. parvum [2]): 1.77 | Egress and Reinvasion Assay: Mean PV ratios (19.5h:6h), Replicate 3a (C. parvum [2]): 1.37 | Egress and Reinvasion Assay: Mean PV ratios (19.5h:6h), Replicate 4a (C. parvum [2]): 1.12
